We go through 65 compounds from PubChem BioAssay AID743317 (Broad Institute, 2014).

Each structure is given as a SMILES string. Results filed as inconclusive are left out. Activity calls are given as the source filed them.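 Rule for the calls: active = fitted curve reaches 40% activation at or below the top valid dose, and every replicate test is called active; inconclusive = replicate tests disagree, some active and some inactive; inactive = all replicate tests inactive, including activity in the wrong direction.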

The first test deals with Endoplasmic reticulum aminopeptidase 1 (Homo sapiens) (UniProt Q9NZ08). As to the kind of experiment: ERAP1 aminopeptidase activity change, dose response, biochemical, fluorescence, cherry-pick (AID 743317). The settings on record: ERAP1 enzyme, Leu-AMC fluorescence, 60 min.
Endoplasmic reticulum aminopeptidase 1 (Homo sapiens), sequence (Q9NZ08 whole entry, looked up): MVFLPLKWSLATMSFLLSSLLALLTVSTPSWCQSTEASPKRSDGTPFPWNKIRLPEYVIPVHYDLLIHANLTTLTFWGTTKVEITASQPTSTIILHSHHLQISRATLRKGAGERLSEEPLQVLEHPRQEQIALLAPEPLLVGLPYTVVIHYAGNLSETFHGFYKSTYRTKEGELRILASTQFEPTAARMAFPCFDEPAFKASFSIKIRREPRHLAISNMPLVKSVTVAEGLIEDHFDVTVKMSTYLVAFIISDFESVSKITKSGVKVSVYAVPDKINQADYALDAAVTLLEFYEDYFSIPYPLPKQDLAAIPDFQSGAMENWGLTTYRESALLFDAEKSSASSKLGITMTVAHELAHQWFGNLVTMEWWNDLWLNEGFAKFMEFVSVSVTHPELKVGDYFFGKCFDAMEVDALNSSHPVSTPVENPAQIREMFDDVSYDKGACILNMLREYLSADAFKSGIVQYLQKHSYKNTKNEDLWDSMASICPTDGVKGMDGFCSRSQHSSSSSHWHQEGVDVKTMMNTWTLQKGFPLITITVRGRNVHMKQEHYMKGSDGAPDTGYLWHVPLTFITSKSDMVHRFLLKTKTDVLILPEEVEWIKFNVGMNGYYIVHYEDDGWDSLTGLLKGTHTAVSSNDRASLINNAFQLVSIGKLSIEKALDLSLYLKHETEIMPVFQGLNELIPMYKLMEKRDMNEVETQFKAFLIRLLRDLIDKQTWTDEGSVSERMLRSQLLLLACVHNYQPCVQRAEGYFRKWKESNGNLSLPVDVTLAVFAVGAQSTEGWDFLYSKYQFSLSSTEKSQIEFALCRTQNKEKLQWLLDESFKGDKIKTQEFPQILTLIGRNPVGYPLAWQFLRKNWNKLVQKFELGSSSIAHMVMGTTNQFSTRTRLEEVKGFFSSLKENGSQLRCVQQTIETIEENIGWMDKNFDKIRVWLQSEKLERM
Turning to `C[C@@H]1CCCCO[C@H](CN(C)Cc2ccc(C(=O)O)cc2)[C@H](C)CN([C@@H](C)CO)C(=O)c2cc(NC(=O)Nc3ccc(C(F)(F)F)cc3)ccc2O1`, the AC40 was 0.0919 µM. For `C[C@H]1CN([C@@H](C)CO)C(=O)c2cccc(NC(=O)Nc3ccc(F)cc3)c2O[C@@H]1CN(C)C(=O)Nc1ccc2c(c1)OCO2`, the AC40 was 5.56 µM.

For `O=C(C[C@H]1CC[C@@H]2[C@H](COC[C@@H](O)CN2C(=O)Nc2cccc(Cl)c2)O1)N1CCCCC1`, the AC40 is 0.812 µM. Still for that read-out and setting: then `CCCN(C)C[C@@H]1OCCCC[C@@H](C)Oc2ccc(NS(=O)(=O)c3ccc(OC)cc3)cc2C(=O)N([C@H](C)CO)C[C@@H]1C`, with 0.812 µM; and `C[C@@H]1CN([C@H](C)CO)C(=O)c2cccc(NC(=O)Nc3ccccc3)c2O[C@@H]1CN(C)Cc1ccc(C(=O)O)cc1`, with 3.61 µM; and `Cc1ccc(S(=O)(=O)Nc2ccc3c(c2)C(=O)N([C@@H](C)CO)C[C@H](C)[C@H](CN(C)C)OCCCC[C@@H](C)O3)cc1`, with 0.48 µM. Take `CCCN(C)C[C@@H]1OCCCC[C@@H](C)Oc2ccc(NS(=O)(=O)c3ccc(C)cc3)cc2C(=O)N([C@H](C)CO)C[C@@H]1C`: the AC40 is 1.42 µM. Same read-out and setting: then `Cc1noc(C)c1NC(=O)N(C)C[C@@H]1Oc2c(NC(=O)Nc3ccc(F)cc3)cccc2C(=O)N([C@H](C)CO)C[C@@H]1C`, with 5.64 µM. As for `C[C@H]1CN([C@@H](C)CO)C(=O)c2cccc(NC(=O)Nc3ccc4c(c3)OCO4)c2O[C@@H]1CN(C)CC1CC1`, the AC40 was 0.77 µM.

As for `C[C@H](CO)N1C[C@H](C)[C@H](CN(C)Cc2ccncc2)Oc2c(NC(=O)Nc3ccc(C(F)(F)F)cc3)cccc2C1=O`, the AC40 is 0.704 µM. Same read-out and setting: then `CO[C@@H]1CN(C)C(=O)c2ccc(NC(=O)Nc3cccc(Cl)c3)cc2OC[C@@H](C)NC[C@H]1C`, with 1.41 µM. For the compound `Cc1noc(C)c1S(=O)(=O)Nc1ccc2c(c1)C(=O)N([C@H](C)CO)C[C@H](C)[C@H](CN(C)Cc1ccc3c(c1)OCO3)OCCCC[C@@H](C)O2`, the AC40 was 2.35 µM.

For `C[C@@H]1CCCCO[C@@H](CN(C)Cc2ccc3c(c2)OCO3)[C@@H](C)CN([C@H](C)CO)C(=O)c2cc(NS(=O)(=O)c3cccs3)ccc2O1`, the AC40 is less than 0.08 µM.

Consider `C[C@@H]1CCCCO[C@H](CN(C)C)[C@H](C)CN([C@H](C)CO)C(=O)c2cc(NS(=O)(=O)c3ccc(Cl)cc3)ccc2O1`, for which the AC40 is 0.548 µM. The same measure, in the same setting: the figure for `Cc1noc(C)c1NC(=O)N(C)C[C@@H]1Oc2c(NC(=O)Nc3ccccc3)cccc2C(=O)N([C@H](C)CO)C[C@@H]1C` is 6.45 µM. On the same count and under the same terms, the figure for `CCCNC(=O)C[C@H]1CC[C@@H]2[C@H](COC[C@H](O)CN2C(=O)Nc2cccc(Cl)c2)O1` is 3.41 µM; for `COc1ccc(CN(C)C[C@@H]2OCCCC[C@@H](C)Oc3ccc(NS(=O)(=O)c4cccs4)cc3C(=O)N([C@@H](C)CO)C[C@H]2C)cc1` it is 0.577 µM. On the same count and under the same terms, the figure for `COc1ccc(NC(=O)Nc2ccc3c(c2)C(=O)N([C@@H](C)CO)C[C@@H](C)[C@@H](CN(C)Cc2ccc(C(=O)O)cc2)OCCCC[C@@H](C)O3)cc1` is less than 0.08 µM.

For `C[C@@H]1CCCCO[C@@H](CN(C)Cc2ccc(C(=O)O)cc2)[C@H](C)CN([C@@H](C)CO)C(=O)c2cc(NS(=O)(=O)c3ccc(Cl)cc3)ccc2O1`, the AC40 was 3.66 µM. Still for that read-out and setting: then `COc1ccc(NC(=O)Nc2ccc3c(c2)C(=O)N([C@H](C)CO)C[C@@H](C)[C@@H](CN(C)Cc2ccc(C(=O)O)cc2)OCCCC[C@@H](C)O3)cc1`, with 0.652 µM; and `C[C@@H]1CCCCO[C@@H](CN(C)CC2CC2)[C@@H](C)CN([C@H](C)CO)C(=O)c2cc(NS(=O)(=O)c3ccc(Cl)cc3)ccc2O1`, with 0.0973 µM; and `C[C@@H]1CCCCO[C@@H](CN(C)C)[C@@H](C)CN([C@@H](C)CO)C(=O)c2cc(NS(=O)(=O)c3ccc(F)cc3)ccc2O1`, with 0.454 µM. Turning to `CCCN(C)C[C@@H]1OCCCC[C@@H](C)Oc2ccc(NS(=O)(=O)c3c(C)noc3C)cc2C(=O)N([C@H](C)CO)C[C@@H]1C`, the AC40 is 1.24 µM.

On to `COc1cc2cc(C(=O)N3CCN(Cc4ccc5c(c4)OCO5)CC3)c(=O)oc2cc1OC`, for which the AC40 is 4.58 µM.

As for `CNC[C@H]1Oc2c(NC(=O)Nc3ccc(C(F)(F)F)cc3)cccc2C(=O)N([C@@H](C)CO)C[C@@H]1C`, the AC40 is 0.646 µM. Still for that read-out and setting: then `CCCN(C)C[C@@H]1OCCCC[C@@H](C)Oc2ccc(NS(=O)(=O)c3ccc(C)cc3)cc2C(=O)N([C@@H](C)CO)C[C@@H]1C`, with 0.133 µM; and `COc1ccc(NC(=O)Nc2ccc3c(c2)C(=O)N([C@@H](C)CO)C[C@@H](C)[C@H](CN(C)Cc2ccc(C(=O)O)cc2)OCCCC[C@H](C)O3)cc1`, with 3.74 µM; and `COc1ccc(C2=NN(c3ccc(C(=O)O)cc3)C(c3ccc(OC)c(OC)c3)C2)cc1` (stereo not given), with 0.442 µM.

For `O=C(C[C@@H]1CC[C@@H]2[C@H](COC[C@H](O)CN2C(=O)Nc2cccc(Cl)c2)O1)N1CCCCC1`, the AC40 is 0.364 µM.

`O=c1cc(CN2CCOCC2)c2cc(Cl)c(O)cc2o1`: the AC40 is 4.84 µM.

Turning to `Cc1cc(=O)oc2cc(OCC(=O)N3CCN(C(C)c4ccccc4)CC3)c(Cl)cc12` (stereo not given), the AC40 is 6.22 µM. The same measure, in the same setting: then `C[C@@H]1CCCCO[C@@H](CN(C)C)[C@@H](C)CN([C@@H](C)CO)C(=O)c2cc(NS(=O)(=O)c3ccc(Cl)cc3)ccc2O1`, with 0.636 µM; and `Cc1ccccc1-c1ccc2c(c1)O[C@@H](CN(C)Cc1ccc(C(=O)O)cc1)[C@@H](C)CN([C@@H](C)CO)S2(=O)=O`, with 1.24 µM; and `C[C@@H]1CCCCO[C@@H](CN(C)S(C)(=O)=O)[C@@H](C)CN([C@@H](C)CO)C(=O)c2cc(NS(=O)(=O)c3ccc(Cl)cc3)ccc2O1`, with 0.266 µM. On to `Cc1noc(C)c1NC(=O)Nc1ccc2c(c1)C(=O)N([C@H](C)CO)C[C@@H](C)[C@@H](CN(C)Cc1ccc(C(F)(F)F)cc1)OCCCC[C@@H](C)O2`, for which the AC40 is 2.77 µM.

With `O=C(Nc1ccc(C(F)(F)F)cc1)N1[C@@H]2CNC[C@H]1C2c1ccc(-c2ccncc2)cc1` (stereo not given in full), the AC40 is 7.23 µM. On the same count and under the same terms, then `COc1ccc(CN(C)C[C@@H]2OCCCC[C@H](C)Oc3ccc(NS(=O)(=O)c4cccs4)cc3C(=O)N([C@H](C)CO)C[C@@H]2C)cc1`, with 7.89 µM; and `C[C@@H]1CCCCO[C@@H](CN(C)CC2CC2)[C@@H](C)CN([C@H](C)CO)C(=O)c2cc(NS(=O)(=O)c3cccs3)ccc2O1`, with less than 0.08 µM; and `C[C@@H]1CCCCO[C@@H](CN(C)Cc2ccccc2)[C@H](C)CN([C@H](C)CO)C(=O)c2cc(NS(=O)(=O)c3cccs3)ccc2O1`, with 0.528 µM. The same measure, in the same setting: then `C[C@H]1CN([C@@H](C)CO)C(=O)c2cccc(NC(=O)Nc3ccc(C(F)(F)F)cc3)c2O[C@@H]1CN(C)CC1CC1`, with 0.541 µM.

The same test, now with this note: ERAP1 enzyme, Leu-AMC fluorescence, 60 min; at 5.6 µM (top of the series).
For the compound `CC1CCN(Cc2cc(=O)oc3cc(O)c(Cl)cc23)CC1`, the activity increase (activation) was -36.5% (inactive). Same read-out and setting: the figure for `Cc1cc2nc(-c3ccc[nH]c3=O)[nH]c2cc1C` is -30.6% (inactive); for `CCCc1cc(=O)oc2c(CN3CCN(C)CC3)c(O)ccc12` it is -44.3% (inactive).

Staying with this test, now noted: ERAP1 enzyme, Leu-AMC fluorescence, 60 min; at 10 µM (top of the series).
As for `CCN1[C@H](C(=O)Nc2nccs2)[C@@H](CO)[C@@H]2Cn3c(ccc(/C=C/c4ccccc4)c3=O)[C@@H]21`, the activity increase (activation) was -13.4% (inactive).

The same test, now with this note: ERAP1 enzyme, Leu-AMC fluorescence, 60 min; at 11 µM (top of the series).
As for `CN(C)Cc1c(O)ccc2cc(-c3nc4ccccc4n3C)c(=O)oc12`, the activity increase (activation) is -107% (inactive). The same measure, in the same setting: the figure for `CCN1CCN(Cc2c(O)ccc3c(C)cc(=O)oc23)CC1` is -54.6% (inactive).

Take `CSC1=NS(=O)(=O)c2c(C)nn(C)c2S1`: the activity increase (activation) was -42.5% (inactive). The same measure, in the same setting: the figure for `CCCCCCC[C@H](N)[C@H](O)C(=O)N(C)[C@@H](CCS(C)=O)C(=O)N[C@@H](Cc1ccc(O)cc1)C(=O)N[C@@H](Cc1ccc(O)cc1)C(=O)O` (stereo not given in full) is -57.4% (inactive). Same read-out and setting: then `O=c1oc2c(CN3CCN(CCO)CC3)c(O)ccc2cc1-c1ccccn1`, with -80.1% (inactive); and `COCCCn1c(C(=O)N2CCOCC2)cc2c(=O)n3ccccc3nc21`, with -46.9% (inactive).

Turning to `CCOC(=O)C[n+]1ccc2c([nH]c3ccccc32)c1C`, the activity increase (activation) is -38.3% (inactive). With `CCCCc1cc(=O)oc2cc(O)ccc12`, the activity increase (activation) was -62.4% (inactive).

As to `CC(C)[C@@H](C(=O)N[C@@H](CCc1ccc(O)cc1)C(=O)O)N(C)C(=O)[C@H](CO)NC(=O)[C@@H](O)[C@H](N)CCCCCCCCl`, the activity increase (activation) is -103% (inactive). The same measure, in the same setting: the figure for `C/C(=N\NC(=O)CC#N)c1cc2ccc(O)cc2oc1=O` is -67.1% (inactive); for `CCc1c(C)c2cc(Cl)c(O)c(CN(CC)CC)c2oc1=O` it is -62.3% (inactive). Still for that read-out and setting: the figure for `CCCNC(=O)N(C)C[C@@H]1Oc2ncc(-c3ccncc3)cc2C(=O)N([C@H](C)CO)C[C@@H]1C` is -31.8% (inactive). On the same count and under the same terms, then `O=C(CSc1cn[nH]n1)Nc1cccc(C(=O)O)c1`, with -63.3% (inactive); and `CCN(CC)Cc1c(O)ccc2cc(-c3nc4ccccc4n3C)c(=O)oc12`, with -105% (inactive). As for `Cc1cc(=O)oc2cc(NS(=O)(=O)c3ccc(F)cc3)ccc12`, the activity increase (activation) is -52% (inactive). For `CCN(CCCl)c1cc(CN(C)C)cc(NC(=O)c2ccc(C(=O)Nc3cc(CN(C)C)cc(N(CC)CCCl)c3)cc2)c1`, the activity increase (activation) was -76% (inactive). Still for that read-out and setting: the figure for `CN1CCCC1CCNc1ccc2c(=O)c3ccccc3oc2c1` (stereo not given) is -115% (inactive); for `O=c1ccc2cc(O[C@@H]3O[C@H](CO)[C@@H](O)[C@H](O)[C@H]3O)c(O)cc2o1` it is -98.9% (inactive). Same read-out and setting: the figure for `O=c1ccc2cc(O)c(O)cc2o1` is -53.9% (inactive).

In the case of `CCc1cc(=O)oc2c(CN3CCN(C)CC3)c(O)ccc12`, the activity increase (activation) was -65.3% (inactive). The same measure, in the same setting: then `COc1ccc(-c2cc3ccc(O)cc3oc2=O)cc1OC`, with -92.7% (inactive).
